Active and inactive are the calls of the source.

The values below come from ChEMBL document CHEMBL4425102, “Structure-Based Design of Tetrahydroisoquinoline-7-carboxamides as Selective Discoidin Domain Receptor 1 (DDR1) Inhibitors” (J Med Chem, 2016).

For data set [1], the target named is Epithelial discoidin domain-containing receptor 1 (Homo sapiens, UniProt Q08345). In words: biochemical.
For data set [2], the target named is Tyrosine-protein kinase ABL1 (Homo sapiens, UniProt P00519). In words: Inhibition of human full length recombinant His-tagged ABL1 expressed in baculovirus infected Sf9 insect cells using tyrosine 2 peptide as substrate preincubated for 1 hr measured after 2 hrs in presence of ATP by FRET-based Z'-Lyte assay.
Sequence of Tyrosine-protein kinase ABL1 (P00519 whole entry): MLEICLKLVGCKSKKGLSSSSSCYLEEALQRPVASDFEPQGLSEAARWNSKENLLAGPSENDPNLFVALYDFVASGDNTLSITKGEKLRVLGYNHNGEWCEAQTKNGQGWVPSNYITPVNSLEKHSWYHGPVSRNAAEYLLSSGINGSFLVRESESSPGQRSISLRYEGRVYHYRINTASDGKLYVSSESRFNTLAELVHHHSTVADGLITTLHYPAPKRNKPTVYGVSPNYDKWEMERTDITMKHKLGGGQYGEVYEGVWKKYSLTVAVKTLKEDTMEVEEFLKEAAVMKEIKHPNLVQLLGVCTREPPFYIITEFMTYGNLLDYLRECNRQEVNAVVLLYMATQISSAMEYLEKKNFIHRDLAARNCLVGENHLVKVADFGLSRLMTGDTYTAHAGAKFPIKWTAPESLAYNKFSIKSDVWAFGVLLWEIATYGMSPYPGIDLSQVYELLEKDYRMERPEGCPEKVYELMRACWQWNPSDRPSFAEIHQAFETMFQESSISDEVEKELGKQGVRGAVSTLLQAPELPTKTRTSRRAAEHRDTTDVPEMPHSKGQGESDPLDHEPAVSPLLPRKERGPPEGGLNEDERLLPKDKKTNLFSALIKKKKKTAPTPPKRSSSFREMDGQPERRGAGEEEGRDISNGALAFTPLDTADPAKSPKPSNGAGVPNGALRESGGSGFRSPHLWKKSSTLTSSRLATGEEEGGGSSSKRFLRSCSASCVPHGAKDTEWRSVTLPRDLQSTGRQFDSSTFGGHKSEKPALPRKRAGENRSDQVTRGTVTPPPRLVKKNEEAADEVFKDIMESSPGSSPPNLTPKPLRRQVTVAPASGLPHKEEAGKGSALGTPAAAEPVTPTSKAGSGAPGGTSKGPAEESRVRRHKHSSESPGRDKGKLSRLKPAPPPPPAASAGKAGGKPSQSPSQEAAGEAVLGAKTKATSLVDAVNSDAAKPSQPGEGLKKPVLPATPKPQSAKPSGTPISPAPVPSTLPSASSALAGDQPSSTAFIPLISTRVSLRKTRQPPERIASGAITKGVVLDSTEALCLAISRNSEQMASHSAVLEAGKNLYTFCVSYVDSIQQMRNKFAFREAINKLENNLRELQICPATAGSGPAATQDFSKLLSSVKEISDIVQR
A short description of data set [3]: Cmax in Sprague-Dawley rat at 20 mg/kg, po measured after 0.03 to 24 hrs by HPLC/MS analysis. Format: ADME, organism-based. Set-up: dose 20 mg/kg, route oral. Conditions: in vivo.
The nature of data set [4]: AUC (0 to infinity) in Sprague-Dawley rat at 20 mg/kg, po measured after 0.03 to 24 hrs by HPLC/MS analysis. Format: ADME, organism-based. Details: dose 20 mg/kg, route oral, time infinity. Conditions: in vivo.
Data set [5] in a line: Cmax in ICR mouse at 4 mg/kg, po measured after 15 mins to 24 hrs by HPLC/MS analysis. To be noted: in vivo. Set-up: dose 4 mg/kg, route oral. Format: ADME, organism-based.
The nature of data set [6]: AUC (0 to infinity) in ICR mouse at 1 mg/kg, iv measured after 5 mins to 24 hrs by HPLC/MS analysis. Format: ADME, organism-based. Set-up: dose 1 mg/kg, time infinity, route intravenous. Conditions: in vivo.
Data set [7] is described as follows: Oral bioavailability in Sprague-Dawley rat at 20 mg/kg measured after 0.03 to 24 hrs by HPLC/MS analysis. The data set is classed as ADME, organism-based. To be noted: in vivo.
The test system of data set [8] is Mus musculus. In words: Protection against bleomycin-induced lung fibrosis in C57BL/6 mouse assessed as decrease in fibronectin level in lung at 10 to 50 mg/kg administered via oral gavage bid 14 days post bleomycin treatment measured on day 28 by immunoblot analysis. Format: functional, organism-based. In general terms: In western blotting, separated proteins are transferred to a membrane and probed.

The nature of data set [9]: Half life in Sprague-Dawley rat at 4 mg/kg, iv by HPLC/MS analysis. Format: ADME, organism-based. To be noted: in vivo.
For data set [10], the system named is Mus musculus. The data set can be described thus: Protection against bleomycin-induced lung fibrosis in C57BL/6 mouse assessed as increase in alveolar spaces administered via oral gavage bid 14 days post bleomycin treatment measured on day 28 by Massons trichrome staining. The data set is classed as functional, organism-based.
The nature of data set [11]: AUC (0 to infinity) in Sprague-Dawley rat at 4 mg/kg, iv measured after 0.03 to 24 hrs by HPLC/MS analysis. Format: ADME, organism-based. Details: dose 4 mg/kg, time infinity, route intravenous. Conditions: in vivo.
For data set [12], the system named is Mus musculus. In words: Protection against bleomycin-induced lung fibrosis in C57BL/6 mouse assessed as decrease in alpha-smooth muscle actin level in lung at 10 to 50 mg/kg administered via oral gavage bid 14 days post bleomycin treatment measured on day 28 by immunoblot analysis. Format: functional, organism-based.
Data set [13] can be described thus: Cmax in Sprague-Dawley rat at 4 mg/kg, iv measured after 0.03 to 24 hrs by HPLC/MS analysis. Format: ADME, organism-based. Details: dose 4 mg/kg, route intravenous. To be noted: in vivo.
Data set [14] in a line: Cmax in ICR mouse at 1 mg/kg, iv measured after 5 mins to 24 hrs by HPLC/MS analysis. The data set is classed as ADME, organism-based. Set-up: dose 1 mg/kg, route intravenous. To be noted: in vivo.
The nature of data set [15]: AUC (0 to infinity) in ICR mouse at 4 mg/kg, po measured after 15 mins to 24 hrs by HPLC/MS analysis. The data set is classed as ADME, organism-based. Conditions: in vivo. Set-up: dose 4 mg/kg, route oral, time infinity.
Data set [16] is described as follows: Tmax in ICR mouse at 4 mg/kg, po by HPLC/MS analysis. Format: ADME, organism-based. To be noted: in vivo.
A short description of data set [17]: Oral bioavailability in ICR mouse at 4 mg/kg measured after 15 mins to 24 hrs by HPLC/MS analysis. Format: ADME, organism-based. To be noted: in vivo.
Data set [18] addresses T1, Muscle, skeletal receptor tyrosine-protein kinase (Homo sapiens, UniProt O15146).
T1 sequence (O15146 whole entry): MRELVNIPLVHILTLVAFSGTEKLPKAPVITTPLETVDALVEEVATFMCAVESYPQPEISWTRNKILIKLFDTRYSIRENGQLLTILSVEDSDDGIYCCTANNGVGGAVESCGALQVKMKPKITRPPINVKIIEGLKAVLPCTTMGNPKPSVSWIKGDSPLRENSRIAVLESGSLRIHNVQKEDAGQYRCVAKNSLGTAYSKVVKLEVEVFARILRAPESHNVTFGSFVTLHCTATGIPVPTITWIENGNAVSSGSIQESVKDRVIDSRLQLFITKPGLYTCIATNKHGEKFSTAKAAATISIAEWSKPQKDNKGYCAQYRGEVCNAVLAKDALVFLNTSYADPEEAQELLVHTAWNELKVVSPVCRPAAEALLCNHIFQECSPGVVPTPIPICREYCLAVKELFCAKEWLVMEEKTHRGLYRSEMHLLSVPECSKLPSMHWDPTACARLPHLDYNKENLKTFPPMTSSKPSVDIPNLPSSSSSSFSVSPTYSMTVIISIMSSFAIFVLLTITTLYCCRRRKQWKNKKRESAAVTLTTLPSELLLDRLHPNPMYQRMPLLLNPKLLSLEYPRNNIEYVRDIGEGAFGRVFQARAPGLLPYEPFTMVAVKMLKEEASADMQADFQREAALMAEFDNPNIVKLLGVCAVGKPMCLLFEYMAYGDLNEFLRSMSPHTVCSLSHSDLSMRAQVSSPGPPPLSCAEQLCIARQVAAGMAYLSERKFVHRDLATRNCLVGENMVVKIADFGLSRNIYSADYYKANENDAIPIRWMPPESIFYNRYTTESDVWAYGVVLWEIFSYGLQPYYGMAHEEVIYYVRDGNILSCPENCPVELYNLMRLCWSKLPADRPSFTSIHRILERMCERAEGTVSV
In words: Binding affinity to wild type human partial length MUSK (553 to 869 residues) expressed in bacterial expression system preincubated for 1 hr measured after 30 mins by qPCR method. For orientation: Real-time PCR tracks product formation cycle by cycle.

For data set [19], the system named is Mus musculus. In words: Protection against bleomycin-induced lung fibrosis in C57BL/6 mouse assessed as decrease in hydroxyproline level in lung administered via oral gavage bid 14 days post bleomycin treatment measured on day 28 […]. Format: functional, organism-based.
A short description of data set [20]: Tmax in Sprague-Dawley rat at 20 mg/kg, po by HPLC/MS analysis. The data set is classed as ADME, organism-based. Conditions: in vivo.
Data set [21] addresses T2, Ephrin type-A receptor 8 (Homo sapiens, UniProt P29322).
T2 sequence (P29322 whole entry): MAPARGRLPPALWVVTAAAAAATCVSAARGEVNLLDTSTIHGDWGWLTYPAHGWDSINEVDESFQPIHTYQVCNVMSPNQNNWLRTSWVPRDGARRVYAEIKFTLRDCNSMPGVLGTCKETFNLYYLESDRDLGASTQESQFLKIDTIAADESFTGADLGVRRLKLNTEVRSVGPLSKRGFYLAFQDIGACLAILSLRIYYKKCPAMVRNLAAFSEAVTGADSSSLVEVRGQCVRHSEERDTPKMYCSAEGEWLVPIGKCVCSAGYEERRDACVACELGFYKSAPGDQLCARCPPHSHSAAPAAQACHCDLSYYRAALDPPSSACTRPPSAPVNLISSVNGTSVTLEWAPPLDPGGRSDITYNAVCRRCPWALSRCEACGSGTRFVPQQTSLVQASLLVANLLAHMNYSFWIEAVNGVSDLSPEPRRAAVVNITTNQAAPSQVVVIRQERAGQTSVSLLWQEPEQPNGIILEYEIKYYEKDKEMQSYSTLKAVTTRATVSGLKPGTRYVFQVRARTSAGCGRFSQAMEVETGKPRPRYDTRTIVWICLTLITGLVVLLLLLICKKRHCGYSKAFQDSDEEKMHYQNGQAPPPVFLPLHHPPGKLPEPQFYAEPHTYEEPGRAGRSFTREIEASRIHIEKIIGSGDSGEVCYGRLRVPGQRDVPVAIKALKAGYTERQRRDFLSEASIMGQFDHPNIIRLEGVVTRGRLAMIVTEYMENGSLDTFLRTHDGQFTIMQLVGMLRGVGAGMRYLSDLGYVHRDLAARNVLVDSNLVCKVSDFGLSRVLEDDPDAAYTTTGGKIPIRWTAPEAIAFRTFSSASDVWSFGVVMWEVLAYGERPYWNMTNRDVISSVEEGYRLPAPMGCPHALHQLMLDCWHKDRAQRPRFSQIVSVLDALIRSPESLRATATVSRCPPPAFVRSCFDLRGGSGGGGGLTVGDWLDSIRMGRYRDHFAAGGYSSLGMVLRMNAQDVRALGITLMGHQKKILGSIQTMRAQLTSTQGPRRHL
The data set can be described thus: Binding affinity to wild type human partial length EPHA8 (608 to 920 residues) expressed in bacterial expression system preincubated for 1 hr measured after 30 mins by qPCR method.

Sequence of Epithelial discoidin domain-containing receptor 1 (Q08345 whole entry, the tested form may be a part): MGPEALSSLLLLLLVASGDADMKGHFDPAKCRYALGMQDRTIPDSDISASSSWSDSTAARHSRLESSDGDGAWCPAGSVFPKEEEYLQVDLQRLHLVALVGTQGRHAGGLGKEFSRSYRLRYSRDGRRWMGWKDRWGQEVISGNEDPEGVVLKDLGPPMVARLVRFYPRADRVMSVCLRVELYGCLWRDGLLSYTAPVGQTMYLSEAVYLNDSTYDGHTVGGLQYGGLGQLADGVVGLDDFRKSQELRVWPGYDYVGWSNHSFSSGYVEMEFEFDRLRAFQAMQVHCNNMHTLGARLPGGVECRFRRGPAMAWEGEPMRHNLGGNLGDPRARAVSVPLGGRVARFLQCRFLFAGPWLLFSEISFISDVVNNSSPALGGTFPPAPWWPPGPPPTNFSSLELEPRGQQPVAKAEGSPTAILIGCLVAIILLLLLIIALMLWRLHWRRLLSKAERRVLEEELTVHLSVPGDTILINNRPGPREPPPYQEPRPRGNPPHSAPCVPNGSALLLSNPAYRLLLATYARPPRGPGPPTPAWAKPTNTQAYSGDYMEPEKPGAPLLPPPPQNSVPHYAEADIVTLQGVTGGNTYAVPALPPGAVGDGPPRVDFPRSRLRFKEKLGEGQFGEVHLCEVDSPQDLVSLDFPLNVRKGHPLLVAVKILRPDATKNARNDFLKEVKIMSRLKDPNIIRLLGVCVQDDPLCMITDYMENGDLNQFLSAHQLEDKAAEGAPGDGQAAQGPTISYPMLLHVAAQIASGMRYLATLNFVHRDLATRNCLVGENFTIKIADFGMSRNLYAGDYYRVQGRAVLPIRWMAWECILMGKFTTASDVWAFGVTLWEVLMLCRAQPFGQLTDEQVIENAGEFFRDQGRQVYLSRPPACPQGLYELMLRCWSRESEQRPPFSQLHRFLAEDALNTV

Broadly, the IC50 is the concentration at which inhibition is half-maximal. On to `CC(C)[C@@H]1CN(c2cncnc2)Cc2cc(C(=O)Nc3cc(CN4CCN(C)CC4)cc(C(F)(F)F)c3)ccc21`, for which the IC50 in data set [1] was over 3 µM; in data set [2], over 10 µM.

As to `CC(C)[C@H]1CN(c2cncnc2)Cc2cc(C(=O)Nc3cc(CN4CCN(C)CC4)cc(C(F)(F)F)c3)ccc21`, the IC50 is over 1 µM in data set [1] and over 10 µM in data set [2].

By Cmax is commonly meant the peak of the concentration-time curve. As usually defined, the AUC(0-inf) is the area under the concentration-time curve extrapolated to infinity. Low values mean low exposure, high ones high exposure. A word on the bioavailability: it is the share of a dose that reaches the circulation, judged against a reference dose that is usually intravenous. A high value points to good availability. The term half-life denotes the time needed for the level to fall by half in the phase considered. A higher half-life goes with slow loss. In general, Tmax refers to the time from dosing to the highest level. What is called Kd is the concentration at which binding is half-saturated. For the compound `Cc1cn(-c2cc(NC(=O)c3ccc4c(c3)CN(c3cncnc3)C[C@@H]4C)cc(C(F)(F)F)c2)cn1`, the Cmax in data set [3] came out at 342 ng/mL; in data set [5], 2190 ng/mL; in data set [13], 473 ng/mL; in data set [14], 2250 ng/mL. Also, the AUC(0-inf) is 788 ng·h/mL in [4], 1210 ng·h/mL in data set [6], 236 ng·h/mL in [11] and 2550 ng·h/mL in data set [15]. Further, the figures for the bioavailability in data set [7] and in data set [17] were 66.8% and 41.6%, respectively. For the same compound, the result in data set [8] and in [12] was Active. This compound also gave a half-life in [9] of 1.5 h. The Activity result in [10] and in data set [19] was “Dose-dependent effect” each time. Also, the Tmax in data set [16] is 0.5 h; in data set [20], 1 h. Moreover, the IC50 in data set [2] is over 10 µM. Moreover, the Kd in [18] is 0.53 µM; in data set [21], 0.55 µM.

Turning to `CN1CCN(Cc2cc(NC(=O)c3ccc4c(c3)CN(c3ccccc3)CC4)cc(C(F)(F)F)c2)CC1`, the IC50 was over 3 µM in data set [1] and over 10 µM in data set [2].

For the compound `Cc1cn(-c2cc(NC(=O)c3ccc4c(c3)CN(c3cncnc3)C[C@H]4C)cc(C(F)(F)F)c2)cn1`, in [2], the IC50 is over 10 µM.
